# Reference: ChEMBL document CHEMBL4421722, “Inhibitors of protein prenyltransferases” (2013)
# Species: Rattus norvegicus
# Assay: Inhibition of rat recombinant geranylgeranyltransferase type I expressed in Escherichia coli assessed as residual enzyme activity for geranylgeranylation of K-Ras4B at 50 uM incubated for 30 mins in presence of [3H]GGPP by scintillation counting assay relative to control
row,Activity,SMILES
1,78.8%,Cc1ccc(S(=O)(=O)N2[C@@H](c3ccc(C(C)(C)C)cc3)C(C(=O)O)=CC[C@H]2c2cccc(Cl)c2)cc1
2,95.6%,COc1cc([C@@H]2C[C@@H](Sc3ccc(C)cc3)[C@H](C(=O)O)CN2S(=O)(=O)c2ccc(C)cc2)cc(OC)c1OC
3,68.1%,Cc1cccc([C@H]2C(C(=O)O)=CC[C@@H](c3ccccc3)N2S(C)(=O)=O)c1
4,80.4%,CCCCS[C@@H]1C[C@@H](c2ccc3c(c2)OCO3)N(S(=O)(=O)c2ccc(C)cc2)C[C@H]1C(=O)O
5,95.4%,C=CCS[C@@H]1C[C@@H](c2ccc(OC)cc2)N(S(=O)(=O)c2ccc(Cl)cc2)C[C@H]1C(=O)O
6,85.1%,Cc1ccc(S(=O)(=O)N2[C@@H](c3ccc(C(C)(C)C)cc3)C(C(=O)O)=CC[C@H]2c2ccc(F)cc2)cc1
7,105%,COc1cc([C@@H]2C[C@@H](SC3CCCC3)[C@H](C(=O)O)CN2S(=O)(=O)c2ccc(C)cc2)cc(OC)c1OC
8,65.8%,CCCCCS[C@@H]1C[C@@H](c2ccc(CC)cc2)N(S(=O)(=O)c2ccc(C)cc2)C[C@H]1C(=O)O
9,92.4%,Cc1ccc(S[C@@H]2C[C@@H](c3ccc(C)cc3)N(S(=O)(=O)c3ccc(Cl)cc3)C[C@H]2C(=O)O)cc1
10,99.6%,Cc1ccc([C@@H]2C[C@@H](Sc3ccccc3)[C@H](C(=O)O)CN2S(C)(=O)=O)cc1
11,68.5%,COc1ccc([C@@H]2CC=C(C(=O)O)[C@H](c3ccc(C(C)(C)C)cc3)N2S(=O)(=O)c2ccc(Cl)cc2)cc1
12,76.2%,Cc1ccc(S(=O)(=O)N2[C@@H](c3cccc(F)c3)C(C(=O)O)=CC[C@H]2c2ccc(Cl)cc2)cc1
13,63.1%,COc1cccc([C@@H]2CC=C(C(=O)O)[C@H](c3ccc(C)cc3)N2S(=O)(=O)c2ccc(C)cc2)c1
14,93.4%,Cc1ccc(S(=O)(=O)N2C[C@@H](C(=O)O)[C@H](SC3CCCC3)C[C@H]2c2ccccc2F)cc1
15,94.1%,C=CCS[C@@H]1C[C@@H](c2ccc(C)cc2)N(S(=O)(=O)c2ccc(C)cc2)C[C@H]1C(=O)O
16,63.4%,Cc1ccc(S(=O)(=O)N2[C@@H](c3ccc(F)cc3)C(C(=O)O)=CC[C@H]2c2cccc(F)c2)cc1
17,95.8%,COc1cccc([C@@H]2CC=C(C(=O)O)[C@H](c3ccc(C(C)(C)C)cc3)N2S(=O)(=O)c2ccc(C)cc2)c1
18,66%,Cc1ccc(S(=O)(=O)N2[C@@H](c3cccc(C)c3)C(C(=O)O)=CC[C@H]2c2ccc(Cl)cc2)cc1
19,78.1%,Cc1ccc(S(=O)(=O)N2[C@@H](c3cccc(C)c3)C(C(=O)O)=CC[C@H]2c2ccc(F)cc2)cc1
20,49.1%,C=CCS[C@@H]1C[C@@H](c2ccc(Cl)cc2)N(S(=O)(=O)c2ccc(C)cc2)C[C@H]1C(=O)O
21,85.6%,COc1ccc(S[C@@H]2C[C@@H](c3ccc(Cl)cc3)N(S(=O)(=O)c3ccccc3C)C[C@H]2C(=O)O)cc1
22,82.2%,COc1ccc([C@@H]2CC=C(C(=O)O)[C@H](c3ccc(C(C)(C)C)cc3)N2S(=O)(=O)c2ccccc2)cc1
23,95.6%,CC(=O)C1=CC[C@@H](c2cccc3ccccc23)N(S(=O)(=O)c2ccc(C)cc2)C1
24,85%,CCc1ccc([C@@H]2C[C@@H](Sc3ccc(C)cc3)[C@H](C(=O)O)CN2S(=O)(=O)c2ccc(C)cc2)cc1
25,112%,COc1ccc([C@@H]2C[C@@H](Sc3ccccc3)[C@H](C(=O)O)CN2S(=O)(=O)c2ccc(C)cc2)cc1OC
26,75.2%,Cc1ccc(S(=O)(=O)N2[C@@H](c3ccc(C(C)(C)C)cc3)C(C(=O)O)=CC[C@H]2c2ccccc2)cc1

row,Activity,SMILES
1,87.8%,CCS[C@@H]1C[C@@H](c2ccc(Cl)cc2)N(S(=O)(=O)c2ccc(C)cc2)C[C@H]1C(=O)O
2,77.3%,Cc1ccc([C@@H]2CC=C(C(=O)O)[C@H](c3cccc(F)c3)N2S(=O)(=O)c2ccc(C)cc2)cc1
3,90.5%,COc1ccc(S[C@@H]2C[C@@H](c3ccc(OC)cc3)N(S(=O)(=O)c3ccccc3)C[C@H]2C(=O)O)cc1
4,39%,COc1cccc([C@@H]2C[C@@H](SCc3ccc(C(C)(C)C)cc3)[C@H](C(=O)O)CN2S(=O)(=O)c2ccc(C)cc2)c1
5,72%,CCc1ccc([C@@H]2C[C@@H](Sc3ccc(Cl)cc3)[C@H](C(=O)O)CN2S(=O)(=O)c2ccc(C)cc2)cc1
6,108%,CC(=O)C1=CC[C@@H](c2ccc(C)cc2)N(S(C)(=O)=O)C1
7,75.1%,Cc1ccc(S(=O)(=O)N2[C@@H](c3cccc(Br)c3)C(C(=O)O)=CC[C@H]2c2ccc3c(c2)OCO3)cc1
8,62.3%,Cc1ccc(S(=O)(=O)N2[C@@H](c3ccc(F)cc3)C(C(=O)O)=CC[C@H]2c2cccs2)cc1
9,109%,C=CCS[C@@H]1C[C@@H](c2cc(OC)c(OC)c(OC)c2)N(S(=O)(=O)c2ccc(C)cc2)C[C@H]1C(=O)O
10,101%,COc1ccc(S[C@@H]2C[C@@H](c3ccc(OC)c(OC)c3)N(S(=O)(=O)c3ccc(C)cc3)C[C@H]2C(=O)O)cc1
11,78.2%,Cc1ccc([C@@H]2CC=C(C(=O)O)[C@H](c3ccc(C(C)(C)C)cc3)N2S(C)(=O)=O)cc1
12,87.8%,Cc1ccc([C@@H]2C[C@@H](SC3CCCC3)[C@H](C(=O)O)CN2S(=O)(=O)c2ccc(C)cc2)cc1
13,98%,Cc1ccc(S[C@@H]2C[C@@H](c3ccccc3)N(S(=O)(=O)c3ccc(C)cc3)C[C@H]2C(=O)O)cc1
14,58.7%,CCOc1ccc([C@@H]2CC=C(C(=O)O)[C@H](c3ccc(C(C)(C)C)cc3)N2S(=O)(=O)c2ccc(C)cc2)cc1
15,56.6%,Cc1ccc(S(=O)(=O)N2[C@@H](c3cccc(Br)c3)C(C(=O)O)=CC[C@H]2c2ccc(Cl)cc2)cc1
16,113%,COc1cccc([C@@H]2C[C@@H](SC3CCCC3)[C@H](C(=O)O)CN2S(=O)(=O)c2ccc(C)cc2)c1
17,75.7%,CCS[C@@H]1C[C@@H](c2cccc(Cl)c2)N(S(=O)(=O)c2ccc(C)cc2)C[C@H]1C(=O)O
18,62%,Cc1ccc(S(=O)(=O)N2[C@@H](c3ccc(F)cc3)C(C(=O)O)=CC[C@H]2c2ccc(Cl)cc2)cc1
19,111%,COC(=O)c1ccccc1S(=O)(=O)N1[C@@H](c2ccc(C(C)(C)C)cc2)C(C(=O)O)=CC[C@H]1c1ccc(C)cc1
20,60.7%,COc1ccc([C@@H]2CC=C(C(=O)O)[C@H](c3cccc(Br)c3)N2S(=O)(=O)c2ccc(Cl)cc2)cc1
21,59%,COc1ccc([C@@H]2CC=C(C(=O)O)[C@H](c3cccc(Br)c3)N2S(=O)(=O)c2ccc(C)cc2)cc1OC
22,75%,Cc1ccc([C@@H]2CC=C(C(=O)O)[C@H](c3cccc(F)c3)N2S(C)(=O)=O)cc1
23,68.1%,Cc1ccc(S(=O)(=O)N2[C@@H](c3ccc(Cl)cc3)C(C(=O)O)=CC[C@H]2c2cccc(Br)c2)cc1
24,77.4%,Cc1ccc(S(=O)(=O)N2C[C@@H](C(=O)O)[C@H](SCCC(C)C)C[C@H]2c2ccc3c(c2)OCO3)cc1
25,77.8%,Cc1ccc(S[C@@H]2C[C@@H](c3ccc4c(c3)OCO4)N(S(=O)(=O)c3ccc(C)cc3)C[C@H]2C(=O)O)cc1
26,93.6%,CCCCCCS[C@@H]1C[C@@H](c2cc(OC)c(OC)c(OC)c2)N(S(=O)(=O)c2ccc(C)cc2)C[C@H]1C(=O)O

row,Activity,SMILES
1,91.5%,COc1ccc([C@@H]2C[C@@H](SC3CCCC3)[C@H](C(=O)O)CN2S(=O)(=O)c2ccc(C)cc2)cc1
2,55.3%,COc1ccc([C@@H]2C[C@@H](Sc3ccc(Cl)cc3)[C@H](C(=O)O)CN2S(=O)(=O)c2ccc(C)cc2)cc1
3,50.9%,Cc1ccc([C@@H]2C[C@@H](SCc3ccc(Cl)cc3)[C@H](C(=O)O)CN2S(=O)(=O)c2ccc(C)cc2)cc1
4,76.9%,Cc1ccc([C@@H]2C[C@@H](SCCc3ccccc3)[C@H](C(=O)O)CN2S(C)(=O)=O)cc1
5,90.4%,CCS[C@@H]1C[C@@H](c2cc(OC)c(OC)c(OC)c2)N(S(=O)(=O)c2ccc(C)cc2)C[C@H]1C(=O)O
6,53.2%,COc1ccc([C@@H]2CC=C(C(=O)O)[C@H](c3cccc(Cl)c3)N2S(=O)(=O)c2ccc(Cl)cc2)cc1
7,79.5%,Cc1ccc(S(=O)(=O)N2[C@@H](c3cccc(Cl)c3)C(C(=O)O)=CC[C@H]2c2cccs2)cc1
8,84.9%,CCCS[C@@H]1C[C@@H](c2ccc(OCC)cc2)N(S(=O)(=O)c2ccc(C)cc2)C[C@H]1C(=O)O
9,91.4%,CCCS[C@@H]1C[C@@H](c2ccc(OC)c(OC)c2)N(S(=O)(=O)c2ccc(C)cc2)C[C@H]1C(=O)O
10,79.1%,CCOc1ccc([C@@H]2C[C@@H](Sc3ccc(OC)cc3)[C@H](C(=O)O)CN2S(=O)(=O)c2ccc(C)cc2)cc1
11,86.1%,COc1cccc([C@@H]2C[C@@H](Sc3ccccc3)[C@H](C(=O)O)CN2S(=O)(=O)c2ccc(C)cc2)c1
12,88.4%,CCCS[C@@H]1C[C@@H](c2ccc(OC)cc2)N(S(=O)(=O)c2ccccc2C)C[C@H]1C(=O)O
13,81%,CCCCCS[C@@H]1C[C@@H](c2ccc(C)cc2)N(S(=O)(=O)c2ccccc2)C[C@H]1C(=O)O
14,79.6%,COc1ccc([C@@H]2C[C@@H](Sc3ccccc3)[C@H](C(=O)O)CN2S(=O)(=O)c2ccc(C)cc2)cc1
15,62.4%,Cc1ccc(S[C@@H]2C[C@@H](c3ccc(C)cc3)N(S(=O)(=O)c3ccc(C)cc3)C[C@H]2C(=O)O)cc1
16,60.7%,Cc1ccc([C@H]2C(C(=O)O)=CC[C@@H](c3ccc(Cl)cc3)N2S(=O)(=O)c2ccc(C)cc2)cc1
17,67.6%,CCCCCCS[C@@H]1C[C@@H](c2ccc(OCC)cc2)N(S(=O)(=O)c2ccc(C)cc2)C[C@H]1C(=O)O
18,39.4%,Cc1ccc(S(=O)(=O)N2C[C@@H](C(=O)O)[C@H](SCCC(C)C)C[C@H]2c2ccc(Cl)cc2)cc1
19,60.2%,Cc1ccc(S(=O)(=O)N2[C@@H](c3ccc(F)cc3)C(C(=O)O)=CC[C@H]2c2cccc(Cl)c2)cc1
20,67.7%,Cc1ccc([C@@H]2CC=C(C(=O)O)[C@H](c3ccc(F)cc3)N2S(=O)(=O)c2ccc(C)cc2)cc1
21,80%,COc1ccc([C@@H]2CC=C(C(=O)O)[C@H](c3ccc(Cl)cc3)N2S(=O)(=O)c2ccccc2C)cc1
22,55%,Cc1ccc(S(=O)(=O)N2[C@@H](c3cccc(Br)c3)C(C(=O)O)=CC[C@H]2c2cccs2)cc1
23,93.5%,Cc1ccc(S(=O)(=O)N2[C@@H](c3cccc(Br)c3)C(C(=O)O)=CC[C@H]2c2ccc(C#N)cc2)cc1
24,77.4%,COC(=O)c1ccccc1S(=O)(=O)N1[C@@H](c2ccc(Br)cc2)C(C(=O)O)=CC[C@H]1c1ccc(C)cc1
